Structures can show the parent of a compound that is named as a salt.
How the values were obtained:
[1] = Reduced preservative binding to contact lenses (radio-labeled C14-PHMB, gamma counter); conditions: 1 percent w/v in phosphate buffer, 12 hours at 37 degrees C; for Preservative (C14-PHMB) binding, Average: average of lens A and B
Source text: Results were reported in ug/lens. […] The control was phosphate buffer and sodium chloride.

C. albicans [2] = experiment: In vitro microbicidal activity, 0.2% phosphate buffer with PHMB (Example 4); format: cell-based; conditions: pH 7.2
lysozyme = experiment: Protein deposition inhibition on contact lenses (lysozyme, BCA method); conditions: lenses soaked overnight in test solution (additives 1 percent w/v in phosphate buffer), then lysozyme 37 degrees C for 12 hours
Description: Contact lenses were soaked test solutions overnight. Afterwards, lysozyme was added to the tubes and warmed to 37 degrees C. for 12 hours. […] The lenses were assayed for protein deposition by the BCA method and detected on an HP PDA Spectrophotometer. Results were reported in ug/lens. […] The control was phosphate buffer and sodium chloride.

radio-labeled lysozyme = conditions: 1 percent w/v in phosphate buffer, 12 hours at 37 degrees Celsius
Description: Contact lenses were soaked and heated in test solutions to which a radio-labeled lysozyme was present in a known amount for a period of 12 hours at 37 degrees Celsius. The lenses were rinsed with distilled water in order to remove residual solution. The lenses were then assayed for protein deposition using a Beckman BioGamma I counter. Results were reported in ug/lens.
Choline chloride was a 1 percent w/v solution. The matrix control was phosphate buffer and sodium chloride.

C. albicans [3] = experiment: In vitro microbicidal activity, 0.1% phosphate buffer with PHMB and hydrogen peroxide (Example 3B); format: cell-based; conditions: additive 1%, PHMB 0.0001%, hydrogen peroxide 0.0060%; for C albicans log reduction: pH 7.0, 4 hours at room temperature; for Improvement (log reduction versus buffer control): pH 7.0, 4 hours, buffer control 0.41
Description: The solutions were made isotonic with sodium chloride and preserved with polyhexamethylene biquanide at 0.0001% and hydrogen peroxide at 0.0060%. Dequest […] was added as a stabilizer. The pH was adjusted to 7.0 with either 1 N sodium hydroxide. […] Subsequently, an aliquot of each solution was serial diluted onto agar plates and incubated for 48 hours at elevated temperatures. At the conclusion of the incubation period the plates are examined for the development of colonies. The log reduction was determined based on a comparison to the inoculum control. The following table provides the results of the in vitro studies.

[4] = additive 0.5%, 0.2% phosphate buffer, PHMB 0.0001%, 4 hours at room temperature
[5] = additive 0.5%, 0.2% phosphate buffer, PHMB 0.0001%, 4 hours, buffer control 0.99

C[N+](C)(C)CC(=O)O [betaine HCI, Betaine HCl]
Preservative (C14-PHMB) binding, Average [1]: 7 ug/lens | Preservative (C14-PHMB) binding, Lens A [1]: 6 ug/lens | Preservative (C14-PHMB) binding, Lens B [1]: 8 ug/lens | C albicans log reduction (C. albicans [2]; [4]): 1.37 log | Improvement (log reduction versus buffer control) (C. albicans [2]; [5]): 0.38 | ug lysozyme per lens (lysozyme): 2.44 ug/lens

CN(CC(=O)O)C(=N)N [creatine, Creatine]
C albicans log reduction (C. albicans [2]; [4]): 1.72 log | Improvement (log reduction versus buffer control) (C. albicans [2]; [5]): 0.73

C[N+](C)(C)CCO.[Cl-] [Choline Chloride]
Preservative (C14-PHMB) binding, Average [1]: 14.5 ug/lens | Preservative (C14-PHMB) binding, Lens A [1]: 18 ug/lens | Preservative (C14-PHMB) binding, Lens B [1]: 11 ug/lens | Protein deposition, Average (radio-labeled lysozyme; average of lens A and B): 12 ug/lens | Protein deposition, LensA (radio-labeled lysozyme; lens A): 14 ug/lens | Protein deposition, LensB (radio-labeled lysozyme; lens B): 9 ug/lens | ug lysozyme per lens (lysozyme): 4.1 ug/lens

CN1CC(=O)NC1=N [creatinine, Creatinine]
C albicans log reduction (C. albicans [3]): 1.42 log | Improvement (log reduction versus buffer control) (C. albicans [3]): 1.01

CCN(CC)CC [triethylamine, Triethylamine]
C albicans log reduction (C. albicans [2]; [4]): 1.64 log | Improvement (log reduction versus buffer control) (C. albicans [2]; [5]): 0.65

O=C(O)CN(CCO)CCO [bicine, N,N-Bis(2-hydroxyethyl)-glycline]
C albicans log reduction (C. albicans [3]): 0.75 log | Improvement (log reduction versus buffer control) (C. albicans [3]): 0.34

O=C(O)CNC(CO)(CO)CO [tricine, N-tris(hydroxymethyl)methyl glycine]
C albicans log reduction (C. albicans [2]; [4]): 1.33 log | Improvement (log reduction versus buffer control) (C. albicans [2]; [5]): 0.34

C[N+](C)(C)CC(O)CC(=O)[O-] (centres unmarked) [carnitine, Carnitine]
Preservative (C14-PHMB) binding, Average [1]: 11 ug/lens | Preservative (C14-PHMB) binding, Lens A [1]: 9 ug/lens | Preservative (C14-PHMB) binding, Lens B [1]: 13 ug/lens | C albicans log reduction (C. albicans [2]; [4]): 1.28 log | Improvement (log reduction versus buffer control) (C. albicans [2]; [5]): 0.29

C[N+](C)(C)CCO [choline, Choline]
C albicans log reduction (C. albicans [2]; [4]): 2.24 log | Improvement (log reduction versus buffer control) (C. albicans [2]; [5]): 1.25

OCCN(CCO)C(CO)(CO)CO [bis-tris, Bis-(2-hydroxyethyl)imino-tns (hydroxymethyl) methane]
C albicans log reduction (C. albicans [2]): 1.21 log | Improvement (log reduction versus buffer control) (C. albicans [2]): 0.22

Reference: patent publication US10138384B2, “Ophthalmic and contact lens solutions using bicine” (priority 2000, dated 2018)
